Experimental data reported in paper PMC3795025, “A Target-Disease Network Model of Second-Generation BCR-ABL Inhibitor Action in Ph+ ALL” (PLoS ONE, 2013).

Molecular target: LYN (Homo sapiens, UniProt P07948)
Assay: chemical proteomics pulldown from cell lysate (c-bafetinib beads, competition with […] free drug)
Format: cell-based

Chain of LYN (P07948 2-512): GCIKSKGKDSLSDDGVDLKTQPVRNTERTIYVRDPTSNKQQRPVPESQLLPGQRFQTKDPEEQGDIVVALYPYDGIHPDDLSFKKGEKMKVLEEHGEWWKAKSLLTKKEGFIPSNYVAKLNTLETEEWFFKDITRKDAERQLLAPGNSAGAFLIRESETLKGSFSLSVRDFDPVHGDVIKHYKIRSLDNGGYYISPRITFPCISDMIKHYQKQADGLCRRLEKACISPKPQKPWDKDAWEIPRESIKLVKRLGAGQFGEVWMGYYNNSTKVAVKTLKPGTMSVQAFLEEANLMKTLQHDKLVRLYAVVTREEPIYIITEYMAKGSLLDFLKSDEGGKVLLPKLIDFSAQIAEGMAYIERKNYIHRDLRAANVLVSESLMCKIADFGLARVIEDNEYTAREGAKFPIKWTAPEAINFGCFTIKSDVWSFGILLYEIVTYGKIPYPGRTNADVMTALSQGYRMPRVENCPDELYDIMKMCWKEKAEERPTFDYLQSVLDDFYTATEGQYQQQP

Q: For Cc1ccc(NC(=O)c2ccc(CN3CC[C@H](N(C)C)C3)c(C(F)(F)F)c2)cc1Nc1nccc(-c2cncnc2)n1 [bafetinib], which “chemical proteomics pulldown from cell lysate (c-bafetinib beads, competition wi)” value is on record?
A: The value was “LYN and BTK have been identified with all four TKI in the present chemical proteomics screen”.
